Earlier results, collected in US9821060B2, “Heat-sensitive nanoparticle system” (FONDAZIONE ISTITUTO ITALIANO DI TECNOLOGIA, priority 2013, dated 2017).

Details: in water

Structure (SMILES): CC(C)(N=NC(C)(C)C(=O)NCCC(=O)O)C(=O)NCCC(=O)O.O [VA057, 2,2′Azobis-[N-(2-carboxyethyl)-2-methylpropionamide]hydrate]
- half-life temperature at 10 hours: 57 °C
